Laboratory results reported in ChEMBL document CHEMBL1201862, “PubChem BioAssay data set” (2004).
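These data come from cells grown in 96-well plates and exposed to compound for 48 hours at five concentrations. GI50 marks 50% less growth.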 The source made the active and inactive calls. No stated cut-off is given here; in the data, active = GI50 up to about 1.1 µM and inactive = higher.

Assays:
Experiment in all cases: NCI-60 cell line screen, 48 h
SR = tested on: SR
MOLT-4 = tested on: MOLT-4
OVCAR-8 = tested on: OVCAR-8
SF-539 = tested on: SF-539
SNB-78 = tested on: SNB-78
RXF 393 = tested on: RXF 393
TK-10 = tested on: TK-10
CCRF-CEM = tested on: CCRF-CEM
SK-MEL-2 = tested on: SK-MEL-2
SW-620 = tested on: SW-620
DMS-273 = tested on: DMS-273
HCT-116 = tested on: HCT-116
OVCAR-3 = tested on: OVCAR-3
A549 = tested on: A549
NCI-H23 = tested on: NCI-H23
K562 = tested on: K562
Malme-3M = tested on: Malme-3M
KM-20L2 = tested on: KM-20L2
HCT-15 = tested on: HCT-15
U-251 = tested on: U-251
DMS-114 = tested on: DMS-114
HOP-62 = tested on: HOP-62
NCI-H522 = tested on: NCI-H522
IGROV-1 = tested on: IGROV-1
A498 = tested on: A498
SK-MEL-5 = tested on: SK-MEL-5
HCC 2998 = tested on: HCC 2998
SK-OV-3 = tested on: SK-OV-3
ACHN = tested on: ACHN
LOX IMVI = tested on: LOX IMVI
M14 = tested on: M14
786-0 = tested on: 786-0
HOP-92 = tested on: HOP-92
XF498 = tested on: XF498
UO-31 = tested on: UO-31
EKVX = tested on: EKVX
COLO 205 = tested on: COLO 205
KM12 = tested on: KM12
HOP-18 = tested on: HOP-18
NCI-H226 = tested on: NCI-H226
CAKI-1 = tested on: CAKI-1
HT-29 = tested on: HT-29
SK-MEL-28 = tested on: SK-MEL-28
OVCAR-4 = tested on: OVCAR-4
M19-MEL = tested on: M19-MEL
SN12C = tested on: SN12C
RPMI-8226 = tested on: RPMI-8226
SNB-75 = tested on: SNB-75
SF-268 = tested on: SF-268
LXFL 529 = tested on: LXFL 529
UACC-257 = tested on: UACC-257
NCI-H460 = tested on: NCI-H460
OVCAR-5 = tested on: OVCAR-5
SNB-19 = tested on: SNB-19
UACC-62 = tested on: UACC-62
SF-295 = tested on: SF-295
HL-60 = tested on: HL-60
DLD-1 = tested on: DLD-1

Structure (SMILES): Cc1cc2c(cc1C)[n+]([O-])c(C(=O)CC(=O)C(=O)Nc1c(C(C)C)cccc1C(C)C)c(C)[n+]2[O-]
- GI50 (SR): > 100 µM (inactive)
- GI50 (MOLT-4): > 100 µM (inactive)
- GI50 (OVCAR-8): > 100 µM (inactive)
- GI50 (SF-539): > 100 µM (inactive)
- GI50 (SNB-78): > 100 µM (inactive)
- GI50 (RXF 393): > 100 µM (inactive)
- GI50 (TK-10): > 100 µM (inactive)
- GI50 (CCRF-CEM): > 100 µM (inactive)
- GI50 (SK-MEL-2): > 100 µM (inactive)
- GI50 (SW-620): > 100 µM (inactive)
- GI50 (DMS-273): > 100 µM (inactive)
- GI50 (HCT-116): > 100 µM (inactive)
- GI50 (OVCAR-3): > 100 µM (inactive)
- GI50 (A549): > 100 µM (inactive)
- GI50 (NCI-H23): > 100 µM (inactive)
- GI50 (K562): > 100 µM (inactive)
- GI50 (Malme-3M): > 100 µM (inactive)
- GI50 (KM-20L2): > 100 µM (inactive)
- GI50 (HCT-15): > 100 µM
- GI50 (U-251): > 100 µM (inactive)
- GI50 (DMS-114): > 100 µM (inactive)
- GI50 (HOP-62): > 100 µM (inactive)
- GI50 (NCI-H522): > 100 µM (inactive)
- GI50 (IGROV-1): > 100 µM (inactive)
- GI50 (A498): > 100 µM (inactive)
- GI50 (SK-MEL-5): > 100 µM (inactive)
- GI50 (HCC 2998): > 100 µM (inactive)
- GI50 (SK-OV-3): > 100 µM (inactive)
- GI50 (ACHN): > 100 µM (inactive)
- GI50 (LOX IMVI): > 100 µM (inactive)
- GI50 (M14): > 100 µM (inactive)
- GI50 (786-0): > 100 µM (inactive)
- GI50 (HOP-92): > 100 µM (inactive)
- GI50 (XF498): > 100 µM (inactive)
- GI50 (UO-31): > 100 µM (inactive)
- GI50 (EKVX): > 100 µM (inactive)
- GI50 (COLO 205): > 100 µM (inactive)
- GI50 (KM12): > 100 µM (inactive)
- GI50 (HOP-18): > 100 µM (inactive)
- GI50 (NCI-H226): > 100 µM (inactive)
- GI50 (CAKI-1): > 100 µM (inactive)
- GI50 (HT-29): > 100 µM (inactive)
- GI50 (SK-MEL-28): > 100 µM (inactive)
- GI50 (OVCAR-4): > 100 µM (inactive)
- GI50 (M19-MEL): > 100 µM (inactive)
- GI50 (SN12C): > 100 µM (inactive)
- GI50 (RPMI-8226): > 100 µM (inactive)
- GI50 (SNB-75): > 100 µM (inactive)
- GI50 (SF-268): > 100 µM (inactive)
- GI50 (LXFL 529): > 100 µM (inactive)
- GI50 (UACC-257): > 100 µM (inactive)
- GI50 (NCI-H460): > 100 µM (inactive)
- GI50 (OVCAR-5): > 100 µM (inactive)
- GI50 (SNB-19): > 100 µM (inactive)
- GI50 (UACC-62): > 100 µM (inactive)
- GI50 (SF-295): > 100 µM (inactive)

Structure (SMILES): [N-]=[N+]=CC(=O)C1(C(=O)C=[N+]=[N-])CC1
- GI50 (SR): > 100 µM (inactive)
- GI50 (MOLT-4): > 100 µM (inactive)
- GI50 (OVCAR-8): > 100 µM (inactive)
- GI50 (SF-539): > 100 µM (inactive)
- GI50 (SNB-78): > 100 µM (inactive)
- GI50 (RXF 393): > 100 µM (inactive)
- GI50 (TK-10): > 100 µM (inactive)
- GI50 (CCRF-CEM): > 100 µM (inactive)
- GI50 (SK-MEL-2): > 100 µM (inactive)
- GI50 (SW-620): > 100 µM (inactive)
- GI50 (DMS-273): > 100 µM (inactive)
- GI50 (HCT-116): > 100 µM (inactive)
- GI50 (OVCAR-3): > 100 µM (inactive)
- GI50 (A549): > 100 µM (inactive)
- GI50 (NCI-H23): > 100 µM (inactive)
- GI50 (K562): > 100 µM (inactive)
- GI50 (HL-60): > 100 µM (inactive)
- GI50 (Malme-3M): > 100 µM (inactive)
- GI50 (KM-20L2): > 100 µM (inactive)
- GI50 (HCT-15): > 100 µM
- GI50 (U-251): > 100 µM (inactive)
- GI50 (DMS-114): > 100 µM (inactive)
- GI50 (HOP-62): > 100 µM (inactive)
- GI50 (NCI-H522): > 100 µM (inactive)
- GI50 (IGROV-1): > 100 µM (inactive)
- GI50 (A498): > 100 µM (inactive)
- GI50 (SK-MEL-5): > 100 µM (inactive)
- GI50 (HCC 2998): > 100 µM (inactive)
- GI50 (SK-OV-3): > 100 µM (inactive)
- GI50 (ACHN): > 100 µM (inactive)
- GI50 (LOX IMVI): > 100 µM (inactive)
- GI50 (M14): > 100 µM (inactive)
- GI50 (786-0): > 100 µM (inactive)
- GI50 (XF498): > 100 µM (inactive)
- GI50 (UO-31): > 100 µM (inactive)
- GI50 (EKVX): > 100 µM (inactive)
- GI50 (COLO 205): > 100 µM (inactive)
- GI50 (KM12): > 100 µM (inactive)
- GI50 (HOP-18): > 100 µM (inactive)
- GI50 (NCI-H226): > 100 µM (inactive)
- GI50 (HT-29): > 100 µM (inactive)
- GI50 (SK-MEL-28): > 100 µM (inactive)
- GI50 (OVCAR-4): > 100 µM (inactive)
- GI50 (M19-MEL): > 100 µM (inactive)
- GI50 (SN12C): > 100 µM (inactive)
- GI50 (SNB-75): > 100 µM (inactive)
- GI50 (SF-268): > 100 µM (inactive)
- GI50 (LXFL 529): > 100 µM (inactive)
- GI50 (UACC-257): > 100 µM (inactive)
- GI50 (NCI-H460): > 100 µM (inactive)
- GI50 (OVCAR-5): > 100 µM (inactive)
- GI50 (SNB-19): > 100 µM (inactive)
- GI50 (SF-295): > 100 µM (inactive)

Structure (SMILES): C[C@@H](NC1CCC[C@H]1O)c1ccccc1 (stereo partly specified)
- GI50 (MOLT-4): > 100 µM (inactive)
- GI50 (OVCAR-8): > 100 µM (inactive)
- GI50 (SNB-78): > 100 µM (inactive)
- GI50 (RXF 393): > 100 µM (inactive)
- GI50 (TK-10): > 100 µM (inactive)
- GI50 (CCRF-CEM): > 100 µM (inactive)
- GI50 (SK-MEL-2): > 100 µM (inactive)
- GI50 (SW-620): > 100 µM (inactive)
- GI50 (DMS-273): > 100 µM (inactive)
- GI50 (HCT-116): > 100 µM (inactive)
- GI50 (OVCAR-3): > 100 µM (inactive)
- GI50 (A549): > 100 µM (inactive)
- GI50 (K562): > 100 µM (inactive)
- GI50 (HL-60): > 100 µM (inactive)
- GI50 (Malme-3M): > 100 µM (inactive)
- GI50 (KM-20L2): > 100 µM (inactive)
- GI50 (HCT-15): > 100 µM
- GI50 (U-251): > 100 µM (inactive)
- GI50 (DMS-114): > 100 µM (inactive)
- GI50 (HOP-62): > 100 µM (inactive)
- GI50 (IGROV-1): > 100 µM (inactive)
- GI50 (SK-MEL-5): > 100 µM (inactive)
- GI50 (DLD-1): > 100 µM (inactive)
- GI50 (HCC 2998): > 100 µM (inactive)
- GI50 (SK-OV-3): > 100 µM (inactive)
- GI50 (ACHN): > 100 µM (inactive)
- GI50 (LOX IMVI): > 100 µM (inactive)
- GI50 (M14): > 100 µM (inactive)
- GI50 (786-0): > 100 µM (inactive)
- GI50 (HOP-92): > 100 µM (inactive)
- GI50 (XF498): 5.66 µM (inactive)
- GI50 (UO-31): > 100 µM (inactive)
- GI50 (EKVX): > 100 µM (inactive)
- GI50 (COLO 205): > 100 µM (inactive)
- GI50 (KM12): > 100 µM (inactive)
- GI50 (HOP-18): > 100 µM (inactive)
- GI50 (NCI-H226): > 100 µM (inactive)
- GI50 (CAKI-1): > 100 µM (inactive)
- GI50 (HT-29): > 100 µM (inactive)
- GI50 (SK-MEL-28): > 100 µM (inactive)
- GI50 (OVCAR-4): > 100 µM (inactive)
- GI50 (M19-MEL): > 100 µM (inactive)
- GI50 (SN12C): > 100 µM (inactive)
- GI50 (RPMI-8226): > 100 µM (inactive)
- GI50 (SNB-75): > 100 µM (inactive)
- GI50 (LXFL 529): > 100 µM (inactive)
- GI50 (UACC-257): > 100 µM (inactive)
- GI50 (NCI-H460): > 100 µM (inactive)
- GI50 (OVCAR-5): > 100 µM (inactive)
- GI50 (SNB-19): > 100 µM (inactive)
- GI50 (UACC-62): > 100 µM (inactive)
- GI50 (SF-295): > 100 µM (inactive)
